Earlier results, collected in patent US20070196463A1, “Enteric Soft Gelatin Capsule Containing Esomerpazole And Method Of Preparation” (Natco Pharma Limited, priority 2004, published 2007).

inter-individual variability (human, due to more consistent pharmacokinetics): reduced
Structure (SMILES): COc1ccc2nc([S@@+]([O-])Cc3ncc(C)c(OC)c3C)[nH]c2c1 [esomeprazole]
activity of the enantiomer in human testing (human testing of enantiomers of omeprazole): more active
